Measured values reported in publication PMC10333884, “Large‐scale phosphomimetic screening identifies phospho‐modulated motif‐based protein interactions” (Molecular Systems Biology, 2023).
Values joined by “and” are separate entries in the source; they are usually repeats but may differ in a detail not shown here. Identical values can stand only once. Non-standard residues stand in square brackets, D forms with d. Residues, ends and D or L forms follow the SMILES beside them. pT = C[C@@H](OP(=O)(O)O)[C@H](N)C(=O)O; pS = N[C@@H](COP(=O)(O)O)C(=O)O

Experiments:
Type in all cases: binding
[1] = molecular target: T1, AP2 μ2 (Homo sapiens, UniProt Q96CW1); assay: FP displacement assay, AP2 μ2; conditions: probe FITC-ATG9A 5 nM, 50 mM sodium phosphate pH 7.4, room temperature, at least three technical replicates, read-out: KD values ± SEM
T1 construct: AP2_Mu__Q96CW1_160_435; GST (cleaved yes); made in house; host or cells: Escherichia coli BL21-Gold(DE3)
T1 sequence (Q96CW1 160-435): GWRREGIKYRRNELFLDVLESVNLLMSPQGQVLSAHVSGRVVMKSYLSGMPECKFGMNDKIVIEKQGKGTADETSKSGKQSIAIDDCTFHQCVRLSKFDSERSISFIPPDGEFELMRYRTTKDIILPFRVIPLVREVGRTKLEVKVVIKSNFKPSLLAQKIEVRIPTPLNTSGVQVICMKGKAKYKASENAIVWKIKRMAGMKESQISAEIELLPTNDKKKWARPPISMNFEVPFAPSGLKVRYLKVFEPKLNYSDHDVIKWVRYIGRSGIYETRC
Experimental: (§1) FP experiments were performed as described previously (Kliche et al, [2021]). Shortly, in order to monitor the binding event, FITC‐labelled peptides were used (excitation 495 nm, emission: 535 nm) and the FP signal was recorded in mP on a SpectraMax iD5 Multi‐Mode Microplate Reader (Molecular Devices) by measuring the emitted light in two angels. The measurements were performed at room temperature and prepared in nonbinding black half area 96‐well microplates (Corning®; 50 μl/well). For measuring direct binding, that is saturation curves, a 1:1 dilution series of protein domain (25 μl/well) was generated in 50 mM sodium phosphate buffer pH 7.4 and the measurement performed with 5 nM FITC‐labelled peptide (25 μl/well). The buffer‐corrected values were subsequently plotted with PRISM and fitted to the quadratic equation (Gianni et al, [2005]).
(§2) The 1:1 dilution series in this experiment was performed with the unlabelled peptide in 50 mM sodium phosphate buffer pH 7.4, so that each well‐contained unlabelled peptide (25 μl) at a certain concentration and pre‐formed complex (25 μl). The KD values of this indirectly monitored binding event were calculated as described previously (Nikolovska‐Coleska et al, [2004]). All measurements were at least in technical triplicates as well as biological duplicates when indicated. An amplitude shift between repeat measurements in the displacement experiments was occasionally observed due to variations in the protein preparations. If that was the case, the “active” protein concentration was back‐calculated according to the quadratic equation from the saturation curves performed in parallel. By comparing the active protein concentrations in the complex between different protein preparations, the amplitude was normalised.

[2] = molecular target: T2, RANBP2 RanBD4 (Homo sapiens, UniProt P49792); assay: FP displacement assay, RANBP2 RanBD4; conditions: probe FITC-C7orf25 5 nM, 50 mM sodium phosphate pH 7.4, room temperature, at least three technical replicates, read-out: KD values ± SEM
T2 construct: GST (cleaved yes); made in house; host or cells: Escherichia coli BL21-Gold(DE3)
T2 sequence (P49792 2924-3050): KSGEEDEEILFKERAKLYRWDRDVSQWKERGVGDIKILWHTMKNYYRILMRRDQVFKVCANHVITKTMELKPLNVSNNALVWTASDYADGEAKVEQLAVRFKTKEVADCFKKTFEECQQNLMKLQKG
Experimental: as §1, §2

[3] = molecular target: T3, Clathrin NTD (Homo sapiens, UniProt Q00610); assay: FP displacement assay, clathrin NTD
T3 construct: GST (cleaved yes); made in house; host or cells: Escherichia coli BL21-Gold(DE3)
T3 sequence (Q00610 1-364): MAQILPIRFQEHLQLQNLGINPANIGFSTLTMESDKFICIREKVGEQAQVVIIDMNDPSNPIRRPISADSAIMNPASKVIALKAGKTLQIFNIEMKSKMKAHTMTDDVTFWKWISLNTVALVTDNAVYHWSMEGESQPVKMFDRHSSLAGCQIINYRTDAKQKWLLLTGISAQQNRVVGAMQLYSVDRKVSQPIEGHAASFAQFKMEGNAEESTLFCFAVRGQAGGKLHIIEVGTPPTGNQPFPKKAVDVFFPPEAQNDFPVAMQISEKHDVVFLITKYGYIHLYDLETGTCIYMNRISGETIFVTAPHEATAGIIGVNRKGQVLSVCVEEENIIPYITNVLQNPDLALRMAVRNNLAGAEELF
Experimental: as §1, §2

[4] = molecular target: T3, Clathrin NTD; assay: ITC, clathrin NTD; conditions: ITC (iTC200), 50 mM sodium phosphate pH 7.4, 1 mM DTT; average of the runs, at least technical triplicates
[5] = molecular target: T4, 14-3-3 theta (Homo sapiens, UniProt P27348); assay: FP displacement assay, 14-3-3 theta; conditions: probe FITC-2BTP; technical triplicates
T4 construct: GST (cleaved yes); made in house; host or cells: Escherichia coli BL21-Gold(DE3)
T4 sequence (P27348 1-245): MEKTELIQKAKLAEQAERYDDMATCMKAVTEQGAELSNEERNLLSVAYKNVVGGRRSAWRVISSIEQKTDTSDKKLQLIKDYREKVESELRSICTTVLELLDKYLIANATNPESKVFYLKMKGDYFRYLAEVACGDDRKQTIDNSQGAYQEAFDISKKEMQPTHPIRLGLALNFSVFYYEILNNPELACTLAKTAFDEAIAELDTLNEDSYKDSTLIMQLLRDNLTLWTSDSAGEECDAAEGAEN
Experimental: as §1, §2

Compound | Kd [1] | Kd [2] | also measured
CC(=O)N[C@@H](Cc1ccccc1)C(=O)N1CCC[C@H]1C(=O)N[C@@H](CO)C(=O)N[C@@H](COP(=O)(O)O)C(=O)N[C@@H](Cc1ccc(O)cc1)C(=O)N[C@H](C(=O)N[C@@H](CCCCN)C(=O)N[C@@H](CC(C)C)C(=O)N[C@@H](CC(C)C)C(=O)N[C@@H](CCC(=O)O)C(=O)N[C@@H](CCC(=O)O)C(=O)N[C@@H](CC(N)=O)C(=O)N[C@@H](CCC(=O)O)C(=O)N[C@H](C(=O)N[C@@H](CCC(=O)O)C(=O)N[C@@H](C)C(N)=O)[C@@H](C)O)[C@@H](C)O [BAIAPL1_392–407 pS] (Ac-FPS[pS]YTKLLEENETEA-NH2) | 0.93 ± 0.01 µM |  | 
CC(=O)N[C@@H](Cc1ccccc1)C(=O)N1CCC[C@H]1C(=O)N[C@@H](CO)C(=O)N[C@@H](CO)C(=O)N[C@@H](Cc1ccc(O)cc1)C(=O)N[C@H](C(=O)N[C@@H](CCCCN)C(=O)N[C@@H](CC(C)C)C(=O)N[C@@H](CC(C)C)C(=O)N[C@@H](CCC(=O)O)C(=O)N[C@@H](CCC(=O)O)C(=O)N[C@@H](CC(N)=O)C(=O)N[C@@H](CCC(=O)O)C(=O)N[C@H](C(=O)N[C@@H](CCC(=O)O)C(=O)N[C@@H](C)C(N)=O)[C@@H](C)O)[C@@H](C)O [BAIAPL1_392–407 wt] (Ac-FPSSYTKLLEENETEA-NH2) | 1.29 ± 0.06 µM |  | 
CC(=O)N[C@@H](CCCCN)C(=O)N[C@@H](Cc1ccc(O)cc1)C(=O)N[C@@H](CO)C(=O)N[C@@H](CC(=O)O)C(=O)N[C@@H](CC(=O)O)C(=O)N[C@H](C(=O)N1CCC[C@H]1C(=O)N[C@@H](CC(C)C)C(=O)N1CCC[C@H]1C(=O)N[C@H](C(=O)N1CCC[C@H]1C(=O)N[C@@H](CO)C(=O)N[C@@H](Cc1ccc(O)cc1)C(=O)N[C@@H](CCCCN)C(=O)N[C@@H](Cc1ccc(O)cc1)C(=O)N[C@@H](CC(N)=O)C(N)=O)[C@@H](C)OP(=O)(O)O)[C@@H](C)O [DHX38_260–275 pS] (Ac-KYSDDTPLP[pT]PSYKYN-NH2) |  | 167 ± 21 µM | 
CC(=O)N[C@@H](CCCCN)C(=O)N[C@@H](Cc1ccc(O)cc1)C(=O)N[C@@H](CO)C(=O)N[C@@H](CC(=O)O)C(=O)N[C@@H](CC(=O)O)C(=O)N[C@H](C(=O)N1CCC[C@H]1C(=O)N[C@@H](CC(C)C)C(=O)N1CCC[C@H]1C(=O)N[C@H](C(=O)N1CCC[C@H]1C(=O)N[C@@H](CO)C(=O)N[C@@H](Cc1ccc(O)cc1)C(=O)N[C@@H](CCCCN)C(=O)N[C@@H](Cc1ccc(O)cc1)C(=O)N[C@@H](CC(N)=O)C(N)=O)[C@@H](C)O)[C@@H](C)O [DHX38_260–275 wt] (Ac-KYSDDTPLPTPSYKYN-NH2) |  | 1500 µM | 
CC[C@H](C)[C@H](NC(=O)[C@H](CC(C)C)NC(=O)[C@H](CC(N)=O)NC(=O)CNC(=O)CNC(=O)[C@H](Cc1ccc(O)cc1)NC(C)=O)C(=O)N[C@H](C(=O)N[C@@H](Cc1ccccc1)C(=O)N[C@@H](CCC(=O)O)C(=O)N1CCC[C@H]1C(=O)N[C@@H](CC(C)C)C(=O)N[C@@H](CCC(N)=O)C(=O)N1CCC[C@H]1C(=O)NCC(=O)N[C@@H](CCC(=O)O)C(=O)N[C@@H](Cc1ccccc1)C(N)=O)[C@@H](C)O [HURP832–846 E] (Ac-YGGNLITFEPLQPGEF-NH2) |  |  | Kd [3]: 23 ± 2 µM; Kd [4]: 22 µM
CC[C@H](C)[C@H](NC(=O)[C@H](CC(C)C)NC(=O)[C@H](CC(N)=O)NC(=O)CNC(=O)CNC(=O)[C@H](Cc1ccc(O)cc1)NC(C)=O)C(=O)N[C@H](C(=O)N[C@@H](Cc1ccccc1)C(=O)N[C@@H](COP(=O)(O)O)C(=O)N1CCC[C@H]1C(=O)N[C@@H](CC(C)C)C(=O)N[C@@H](CCC(N)=O)C(=O)N1CCC[C@H]1C(=O)NCC(=O)N[C@@H](CCC(=O)O)C(=O)N[C@@H](Cc1ccccc1)C(N)=O)[C@@H](C)O [HURP832–846 pS] (Ac-YGGNLITF[pS]PLQPGEF-NH2) |  |  | Kd [3]: < 3 µM; IC50 ([3]; Fig 6A, clathrin NTD, FP displacement, two to three technical replicates per protein preparation, 2 independent preparations, read-out: IC50 values of displacement curves, with SEM): 11 ± 4 µM; Kd [4]: 5 µM and 3 µM
CC(=O)N[C@@H](Cc1c[nH]cn1)C(=O)N[C@@H](CC(C)C)C(=O)N1CCC[C@H]1C(=O)N[C@@H](CC(C)C)C(=O)N[C@@H](CC(N)=O)C(=O)N[C@@H](COP(=O)(O)O)C(=O)N1CCC[C@H]1C(=O)N[C@@H](CC(C)C)C(=O)N1CCC[C@H]1C(=O)NCC(=O)N[C@@H](CO)C(=O)N[C@@H](CCC(=O)O)C(=O)N[C@@H](CC(C)C)C(=O)N[C@H](C(=O)N[C@@H](CCCCN)C(=O)N[C@@H](Cc1ccc(O)cc1)C(N)=O)[C@@H](C)O [INTS6_145–159 pS] (Ac-HLPLN[pS]PLPGSELTKY-NH2) |  | 733 ± 128 µM | 
CC(=O)N[C@@H](Cc1c[nH]cn1)C(=O)N[C@@H](CC(C)C)C(=O)N1CCC[C@H]1C(=O)N[C@@H](CC(C)C)C(=O)N[C@@H](CC(N)=O)C(=O)N[C@@H](CO)C(=O)N1CCC[C@H]1C(=O)N[C@@H](CC(C)C)C(=O)N1CCC[C@H]1C(=O)NCC(=O)N[C@@H](CO)C(=O)N[C@@H](CCC(=O)O)C(=O)N[C@@H](CC(C)C)C(=O)N[C@H](C(=O)N[C@@H](CCCCN)C(=O)N[C@@H](Cc1ccc(O)cc1)C(N)=O)[C@@H](C)O [INTS6_145–159 wt] (Ac-HLPLNSPLPGSELTKY-NH2) |  | 334 ± 35 µM | 
CC[C@H](C)[C@H](NC(=O)[C@@H](NC(=O)[C@@H]1CCCN1C(=O)[C@H](COP(=O)(O)O)NC(=O)[C@H](CO)NC(=O)[C@H](C)NC(=O)[C@@H]1CCCN1C(=O)[C@H](CCSC)NC(=O)[C@@H]1CCCN1C(=O)[C@H](CCC(N)=O)NC(=O)[C@H](Cc1ccc(O)cc1)NC(=O)[C@@H]1CCCN1C(=O)[C@@H](NC(=O)[C@@H](NC(=O)[C@H](CCSC)NC(C)=O)[C@@H](C)O)[C@@H](C)CC)C(C)C)C(=O)N[C@@H](CS)C(N)=O [PCBP1_179–194 pS] (Ac-MTIPYQPMPAS[pS]PVIC-NH2) | 0.67 ± 0.04 µM |  | 
CC[C@H](C)[C@H](NC(=O)[C@@H](NC(=O)[C@@H]1CCCN1C(=O)[C@H](CO)NC(=O)[C@H](CO)NC(=O)[C@H](C)NC(=O)[C@@H]1CCCN1C(=O)[C@H](CCSC)NC(=O)[C@@H]1CCCN1C(=O)[C@H](CCC(N)=O)NC(=O)[C@H](Cc1ccc(O)cc1)NC(=O)[C@@H]1CCCN1C(=O)[C@@H](NC(=O)[C@@H](NC(=O)[C@H](CCSC)NC(C)=O)[C@@H](C)O)[C@@H](C)CC)C(C)C)C(=O)N[C@@H](CS)C(N)=O [PCBP1_179–194 wt] (Ac-MTIPYQPMPASSPVIC-NH2) | 3.7 ± 0.1 µM |  | 
H3COC-DMYALTRGSS(E/pS)LADQRK-NH2 [S375 TOM1_366–382, wild-type TOM1 366-382 (F368Y) peptide] |  |  | binding in FP displacement experiment [5]: no binding
H3COC-DMYALTRGSS(E/pS)LADQRK-NH2 [S375E TOM1_366–382, phosphomimetic TOM1 366-382 peptide] |  |  | binding in FP displacement experiment [5]: no binding
H3COC-DMYALTRGSS(E/pS)LADQRK-NH2 [pS375 TOM1_366–382, phosphorylated TOM1 366-382 peptide] |  |  | binding in FP displacement experiment [5]: weak affinity
